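96-well plates; 48 h exposure; 5 concentrations. Endpoints by linear interpolation between flanking doses. Not reached: highest tested concentration assigned. GI50: concentration for 50% inhibition of growth.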 Active and inactive are the calls of the source. No stated cut-off is given here; in the data, active = GI50 up to about 1.1 µM and inactive = higher.
Columns and labels:
Test in all cases: NCI anticancer screen, dose series, 48 h
[1] = tested on: SNB-78
[2] = tested on: SNB-19
[3] = tested on: SK-MEL-5
[4] = tested on: HT-29
[5] = tested on: HOP-62
[6] = tested on: LXFL 529
[7] = tested on: Malme-3M
[8] = tested on: 786-0
[9] = tested on: RPMI-8226
[10] = tested on: SF-295
[11] = tested on: CCRF-CEM
[12] = tested on: SW-620
[13] = tested on: SK-MEL-2
[14] = tested on: U-251
[15] = tested on: TK-10
[16] = tested on: NCI-H522
[17] = tested on: HCT-15
[18] = tested on: NCI-H460
[19] = tested on: OVCAR-3
[20] = tested on: UO-31
[21] = tested on: SN12C
[22] = tested on: NCI-H23
[23] = tested on: KM12
[24] = tested on: EKVX
[25] = tested on: HCC 2998
[26] = tested on: UACC-62
[27] = tested on: OVCAR-8
[28] = tested on: XF498
[29] = tested on: M14
[30] = tested on: MOLT-4
[31] = tested on: SK-MEL-28
[32] = tested on: COLO 205
[33] = tested on: ACHN
[34] = tested on: UACC-257
[35] = tested on: IGROV-1
[36] = tested on: OVCAR-5
[37] = tested on: SF-268
[38] = tested on: DLD-1
[39] = tested on: CAKI-1
[40] = tested on: SK-OV-3
[41] = tested on: KM-20L2
[42] = tested on: OVCAR-4
[43] = tested on: DMS-114
[44] = tested on: SNB-75
[45] = tested on: A549
[46] = tested on: K562
[47] = tested on: M19-MEL
[48] = tested on: A498
[49] = tested on: DMS-273
[50] = tested on: SF-539
[51] = tested on: NCI-H226
[52] = tested on: HCT-116
[53] = tested on: HL-60
[54] = tested on: SR
[55] = tested on: HOP-92
[56] = tested on: LOX IMVI
[57] = tested on: MDA-MB-435
[58] = tested on: MDA-MB-231
[59] = tested on: RXF 393
[60] = tested on: T47D
[61] = tested on: BT-549
[62] = tested on: MCF7
[63] = tested on: MDA-N
[64] = tested on: PC-3
[65] = tested on: DU-145
[66] = tested on: NCI/ADR-RES
[67] = tested on: Hs-578T

Measured: GI50

CN(C)CCC(O)(c1ccccc1)C(O)(CCN(C)C)c1ccccc1 (stereo not drawn)
inactive: [1] > 100 µM | [2] > 100 µM | [3] 38.5 µM | [4] 94 µM | [5] > 100 µM | [6] > 100 µM | [7] 17.7 µM | [8] > 100 µM | [9] > 100 µM | [10] 53.7 µM | [11] > 100 µM | [12] > 100 µM | [13] > 100 µM | [14] > 100 µM | [15] > 100 µM | [16] > 100 µM | [18] > 100 µM | [19] > 100 µM | [20] > 100 µM | [21] > 100 µM | [22] > 100 µM | [23] > 100 µM | [24] > 100 µM | [25] > 100 µM | [26] > 100 µM | [27] > 100 µM | [28] 38.7 µM | [29] 17.4 µM | [30] > 100 µM | [31] > 100 µM | [32] 72.9 µM | [33] > 100 µM | [34] 22.3 µM | [35] > 100 µM | [36] > 100 µM | [37] > 100 µM | [38] > 100 µM | [39] > 100 µM | [40] > 100 µM | [41] 67 µM | [42] > 100 µM | [43] > 100 µM | [44] 33.1 µM | [45] > 100 µM | [46] 48.9 µM | [47] > 100 µM | [48] > 100 µM
> 100 µM: [17]

NCCCOc1ccc([N+](=O)[O-])cc1Cl
inactive: [2] > 100 µM | [49] > 100 µM | [3] > 100 µM | [4] > 100 µM | [5] 71.1 µM | [6] 67.3 µM | [7] > 100 µM | [8] > 100 µM | [9] 51.8 µM | [10] > 100 µM | [11] 42.9 µM | [12] > 100 µM | [13] > 100 µM | [14] > 100 µM | [50] > 100 µM | [15] > 100 µM | [16] 5.62 µM | [18] > 100 µM | [19] > 100 µM | [20] 81.8 µM | [22] > 100 µM | [23] > 100 µM | [25] > 100 µM | [26] > 100 µM | [27] > 100 µM | [28] > 100 µM | [51] > 100 µM | [29] > 100 µM | [30] > 100 µM | [31] > 100 µM | [52] > 100 µM | [32] > 100 µM | [33] > 100 µM | [34] > 100 µM | [35] > 100 µM | [53] > 100 µM | [36] > 100 µM | [54] > 100 µM | [55] 68.9 µM | [37] > 100 µM | [38] > 100 µM | [39] 28.1 µM | [41] > 100 µM | [42] > 100 µM | [43] > 100 µM | [44] 61.1 µM | [45] > 100 µM | [46] 85.9 µM | [47] > 100 µM
> 100 µM: [17]

COc1cc2oc(-c3ccccc3)cc(=O)c2c(O)c1C
> 100 µM: [17]
inactive: [1] > 100 µM | [49] > 100 µM | [3] > 100 µM | [4] > 100 µM | [5] > 100 µM | [56] > 100 µM | [6] > 100 µM | [7] > 100 µM | [8] > 100 µM | [9] > 100 µM | [10] > 100 µM | [11] > 100 µM | [12] > 100 µM | [13] > 100 µM | [14] > 100 µM | [50] > 100 µM | [15] > 100 µM | [16] > 100 µM | [18] > 100 µM | [19] > 100 µM | [20] > 100 µM | [21] > 100 µM | [22] > 100 µM | [23] > 100 µM | [24] > 100 µM | [25] > 100 µM | [26] > 100 µM | [27] > 100 µM | [51] > 100 µM | [29] > 100 µM | [30] > 100 µM | [31] > 100 µM | [52] > 100 µM | [32] > 100 µM | [33] > 100 µM | [34] > 100 µM | [35] > 100 µM | [53] > 100 µM | [36] > 100 µM | [54] > 100 µM | [55] 27.4 µM | [37] > 100 µM | [38] > 100 µM | [39] > 100 µM | [40] > 100 µM | [41] > 100 µM | [42] > 100 µM | [43] > 100 µM | [44] > 100 µM | [45] > 100 µM | [46] > 100 µM | [47] > 100 µM | [48] > 100 µM

CCOC(C)C(/C=N/NC(N)=S)=NNC(N)=S (stereo not drawn) [GLOXAZONE]
> 100 µM: [17]
inactive: [1] 53.7 µM | [2] > 100 µM | [3] 48.3 µM | [5] > 100 µM | [56] > 100 µM | [7] 92.3 µM | [8] > 100 µM | [10] 1.64 µM | [12] > 100 µM | [13] 29.1 µM | [50] > 100 µM | [15] > 100 µM | [16] 26.2 µM | [18] > 100 µM | [21] > 100 µM | [22] > 100 µM | [23] > 100 µM | [25] > 100 µM | [26] > 100 µM | [27] > 100 µM | [31] > 74.1 µM | [32] > 100 µM | [33] > 100 µM | [36] > 100 µM | [55] 46.1 µM | [37] > 100 µM | [38] > 100 µM | [39] > 100 µM | [40] > 100 µM | [42] > 100 µM | [44] 40.3 µM | [45] > 100 µM | [47] > 100 µM | [48] 21.9 µM
active: [6] 0.0865 µM | [9] 0.0643 µM | [11] < 0.0208 µM | [14] 1.07 µM | [24] 0.248 µM | [30] < 0.0254 µM | [34] < 0.0411 µM | [53] 0.0531 µM | [54] < 0.0251 µM | [43] < 0.01 µM | [46] < 0.0195 µM

C=C(C)[C@@H]1CC[C@]2(C)CC[C@]3(C)[C@H](CC[C@@H]4[C@@]5(C)CC[C@H](O)C(C)(C)[C@@H]5CC[C@]43C)[C@@H]12 [LUPEOL]
inactive: [2] > 47.3 µM | [49] > 100 µM | [3] > 74 µM | [4] > 78.2 µM | [5] > 58.3 µM | [56] 19.5 µM | [6] > 100 µM | [7] > 89.3 µM | [8] 37.2 µM | [9] 53.7 µM | [10] > 50.8 µM | [11] 22.1 µM | [12] > 48.2 µM | [57] 19.4 µM | [13] > 100 µM | [14] 21.9 µM | [50] > 88.7 µM | [58] 58.6 µM | [15] > 79.6 µM | [16] 23.8 µM | [18] 45.7 µM | [19] > 55.1 µM | [20] > 47.8 µM | [59] 14 µM | [21] 36.5 µM | [22] 61.5 µM | [60] > 100 µM | [23] > 67 µM | [24] 72.9 µM | [61] 15.6 µM | [25] > 100 µM | [26] > 100 µM | [62] 21.7 µM | [27] 33.3 µM | [28] > 100 µM | [51] > 50.4 µM | [29] > 94.6 µM | [30] 27.5 µM | [31] > 65.2 µM | [52] 44.5 µM | [32] > 100 µM | [33] > 55.1 µM | [34] > 42.7 µM | [35] > 54.7 µM | [63] 32.7 µM | [53] 47.4 µM | [36] > 100 µM | [54] 42.8 µM | [55] 36.1 µM | [37] > 55.7 µM | [38] > 100 µM | [39] > 81.1 µM | [41] > 100 µM | [42] > 100 µM | [64] 32.3 µM | [65] > 100 µM | [66] 26.7 µM | [43] 65.8 µM | [67] 25.6 µM | [44] 38.2 µM | [45] > 62.7 µM | [46] > 46 µM | [47] > 100 µM | [48] 13.4 µM
> 70.1 µM: [17]

From ChEMBL document CHEMBL1201862, “PubChem BioAssay data set” (2004)
